According to PMC6858373 (Scientific Reports, 2019):
Like-named read-outs stand apart in the source and are kept apart here.

Legend:
[1] = target: full-length P. pyralis luciferase (Photinus pyralis, UniProt P08659, K549A/L550V/N119G/N50D/S548I); assay type: cell-based
[2] = target: T1, FGF14:Nav1.6 C-tail complex (Homo sapiens, UniProt Q92915+Q9UQD0); assay: Split-luciferase complementation assay (LCA) in Clone V double stable HEK293 cells; assay type: cell-based
T1 construct: polymerase chain reaction (PCR) amplification of the FGF14 open reading frame (nt 1–855); C-terminal fragment of Nav1.6 (amino acids 1763–1976) fused with CD4ΔC-tail (amino acids 1–395); expressed in transfected cells

[3] = CC_NCI screening, full-length luciferase counter-screen luminescence, normalized to on-plate 0.3% DMSO controls
[4] = CC_NCI screening, full-length luciferase counter-screen, normalized to on-plate 0.3% DMSO controls
[5] = CC_NCI screening, LCA luminescence, biological replicate Set 1, normalized to on-plate 0.3% DMSO controls (n=16 per plate)
[6] = CC_NCI screening, LCA luminescence, biological replicate Set 2, normalized to on-plate 0.3% DMSO controls (n=16 per plate)
[7] = CC_NCI screening, LCA, biological replicate Set 1, normalized to on-plate 0.3% DMSO controls
[8] = CC_NCI screening, LCA, biological replicate Set 2, normalized to on-plate 0.3% DMSO controls
[9] = CC_NCI screening, average of Set 1 and Set 2, normalized to 0.3% DMSO controls
[10] = CC_NCI screening, normalized to on-plate 0.3% DMSO controls
[11] = CC_NCI screening, biological replicate Set 1, normalized to on-plate 0.3% DMSO controls
[12] = CC_NCI screening, biological replicate Set 1, normalized to on-plate 0.3% DMSO controls (n=16 per plate)
[13] = CC_NCI screening, biological replicate Set 2, normalized to on-plate 0.3% DMSO controls
[14] = CC_NCI screening, biological replicate Set 2, normalized to on-plate 0.3% DMSO controls (n=16 per plate)
[15] = average of Set 1 and Set 2, normalized to 0.3% DMSO controls

Chain of full-length P. pyralis luciferase (P08659 whole entry N50D/N119G/S548I/K549A/L550V, looked up): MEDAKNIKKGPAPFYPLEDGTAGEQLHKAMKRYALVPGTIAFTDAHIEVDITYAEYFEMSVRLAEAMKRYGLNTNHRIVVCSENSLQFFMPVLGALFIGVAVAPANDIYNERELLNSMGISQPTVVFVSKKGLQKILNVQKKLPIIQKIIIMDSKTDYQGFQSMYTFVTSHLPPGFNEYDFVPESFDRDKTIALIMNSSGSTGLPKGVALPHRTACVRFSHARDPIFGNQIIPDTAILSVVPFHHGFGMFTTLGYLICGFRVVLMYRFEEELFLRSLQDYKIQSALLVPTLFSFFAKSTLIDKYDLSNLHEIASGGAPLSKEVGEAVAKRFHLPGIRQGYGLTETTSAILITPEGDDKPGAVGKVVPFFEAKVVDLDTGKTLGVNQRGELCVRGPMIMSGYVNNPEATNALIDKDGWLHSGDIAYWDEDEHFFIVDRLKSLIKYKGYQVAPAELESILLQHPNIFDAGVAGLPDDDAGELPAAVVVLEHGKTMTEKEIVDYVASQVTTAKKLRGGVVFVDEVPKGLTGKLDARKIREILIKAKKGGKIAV
T1 sequence (Q92915 1-252 isoform Q92915-2): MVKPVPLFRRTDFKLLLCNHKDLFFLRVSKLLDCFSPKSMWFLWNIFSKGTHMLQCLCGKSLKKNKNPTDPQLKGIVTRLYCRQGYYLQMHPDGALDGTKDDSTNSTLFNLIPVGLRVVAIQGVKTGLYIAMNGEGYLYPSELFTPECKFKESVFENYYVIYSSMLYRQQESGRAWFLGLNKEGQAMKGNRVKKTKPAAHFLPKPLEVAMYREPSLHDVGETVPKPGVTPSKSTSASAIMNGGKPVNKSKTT
T1 sequence (Q9UQD0 1763-1976 limits assumed): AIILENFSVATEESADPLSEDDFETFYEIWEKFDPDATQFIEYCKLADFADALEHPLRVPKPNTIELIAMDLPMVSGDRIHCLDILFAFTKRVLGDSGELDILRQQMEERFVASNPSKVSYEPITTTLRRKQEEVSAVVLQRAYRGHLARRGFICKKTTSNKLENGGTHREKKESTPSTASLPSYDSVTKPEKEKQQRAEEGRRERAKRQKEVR

Compound | Luciferase Assay % Lum [1, 3] | Luciferase Assay Z-score [1, 4] | Toxicity Assay % Fluor (Clone V cells; human, 16 h, 30 µM) | Toxicity Assay Z-score (Clone V cells; human, 16 h, 30 µM) | Split Luciferase Assay % Lum Set 1 [2, 5] | Split Luciferase Assay %Lum Set 2 [2, 6] | Split Luciferase Assay Z-score Set 1 [2, 7] | Split Luciferase Assay Z-score Set 2 [2, 8] | Split Luciferase Assay %Lum Avg [2, 9] | further results
Cc1[nH]c(/C=C2\C(=O)Nc3ccc(S(=O)(=O)N(C)c4cccc(Cl)c4)cc32)c(C)c1C(=O)N1CCN(C)CC1 [SU 11274] | 85.15% | -1.90 | 97.70% | -0.32 | 81.86% | 81.14% | -1.47 | -1.53 | 81.50% | –
DNA-PK INHIBITOR V | – | – | – | – | – | – | – | – | – | Luciferase Assay % Lum (full-length luciferase counter-screen) [1, 10]: 82.55%; Luciferase Assay Z-score (full-length luciferase counter-screen) [1, 10]: -2.23; Toxicity Assay % Fluor (CTB cell viability fluorescence) (Clone V cells): 115.08%; Toxicity Assay Z-score (CTB cell viability) (Clone V cells): 2.11; Split Luciferase Assay Z-score Set 1 [2, 11]: -0.59; Split Luciferase Assay % Lum Set 1 [2, 12]: 92.73%; Split Luciferase Assay Z-score Set 2 [2, 13]: -0.01; Split Luciferase Assay %Lum Set 2 [2, 14]: 99.87%; Split Luciferase Assay %Lum Avg [2, 15]: 96.30%
CO[C@H]1C[C@@H]2CC[C@@H](C)[C@@](O)(O2)C(=O)C(=O)N2CCCC[C@H]2C(=O)O[C@H]([C@H](C)C[C@@H]2CC[C@@H](OC(=O)C(C)(CO)CO)[C@H](OC)C2)CC(=O)[C@H](C)/C=C(\C)[C@@H](O)[C@@H](OC)C(=O)[C@H](C)C[C@H](C)/C=C/C=C/C=C/1C [TEMSIROLIMUS] | 65.73% | -4.39 | 87.05% | -1.81 | 86.21% | 83.22% | -1.11 | -1.36 | 84.72% | –
CO[C@@H]1[C@H](N(C)C(=O)c2ccccc2)C[C@H]2O[C@]1(C)n1c3ccccc3c3c4c(c5c6ccccc6n2c5c31)C(=O)NC4 [PKC412] | 89.50% | -1.34 | 83.94% | -2.25 | 54.68% | 67.62% | -3.66 | -2.63 | 61.15% | –
OCC1OC(O)CC(O)C1O (stereo not drawn) [Compound 2DG] | 91.76% | -1.06 | – | – | 104.69% | 130.04% | 0.38 | 2.44 | 117.36% | Toxicity Assay % Fluor (Clone V cells): 93.82%; Toxicity Assay Z-score (Clone V cells): -0.86
CC(/C=C/C(=O)NO)=C\[C@@H](C)C(=O)c1ccc(N(C)C)cc1 [TRICHOSTATIN A] | 33.58% | -8.51 | – | – | 147.09% | 94.67% | 3.81 | -0.43 | 120.88% | Toxicity Assay % Fluor (Clone V cells): 97.32%; Toxicity Assay Z-score (Clone V cells): -0.37
O=P1(N(CCCl)CCCl)NCCCO1 (stereo not drawn) [Cyclophosphamide] | – | – | – | – | – | – | – | – | – | Luciferase Assay % Lum [1]: 101.62%; Luciferase Assay Z-score [1]: 0.21; Toxicity Assay % Fluor (Clone V cells; human): 98.87%; Toxicity Assay Z-score (Clone V cells; human): -0.16; Split Luciferase Assay % Lum Set 1 [2]: 107.95%; Split Luciferase Assay %Lum Avg [2]: 112.75%; Split Luciferase Assay %Lum Set 2 [2]: 117.56%; Split Luciferase Assay Z-score Set 1 [2]: 0.64; Split Luciferase Assay Z-score Set 2 [2]: 1.43
NS(=O)(=O)c1nn2cc(-c3ccccc3)nc2s1 [AEG 3482] | – | – | – | – | – | – | – | – | – | Luciferase Assay % Lum (full-length luciferase counter-screen) [1, 10]: 93.96%; Luciferase Assay Z-score (full-length luciferase counter-screen) [1, 10]: -0.77; Toxicity Assay % Fluor (CTB cell viability fluorescence) (Clone V cells): 105.28%; Toxicity Assay Z-score (CTB cell viability) (Clone V cells): 0.74; Split Luciferase Assay Z-score Set 1 [2, 11]: 1.78; Split Luciferase Assay % Lum Set 1 [2, 12]: 122.08%; Split Luciferase Assay Z-score Set 2 [2, 13]: 1.09; Split Luciferase Assay %Lum Set 2 [2, 14]: 113.39%; Split Luciferase Assay %Lum Avg [2, 15]: 117.74%
Cc1cc2c(F)c(Oc3ncnn4cc(OC[C@@H](C)O)c(C)c34)ccc2[nH]1 [Brivanib] | 64.23% | -4.58 | 92.51% | -1.05 | 34.03% | 35.37% | -5.33 | -5.26 | 34.70% | –
Nc1nc(F)nc2c1ncn2[C@@H]1O[C@H](COP(=O)(O)O)[C@@H](O)[C@@H]1O [Fludarabine phosphate] | 119.94% | 2.55 | 95.37% | -0.65 | 112.30% | 119.64% | 0.99 | 1.60 | 115.97% | –
NC(=O)c1ccc(I)c([N+](=O)[O-])c1 [BSI-201] | 101.73% | 0.22 | 93.94% | -0.85 | 102.51% | 112.35% | 0.20 | 1.01 | 107.43% | –
Cl.N[C@@H](Cc1ccc(N(CCCl)CCCl)cc1)C(=O)O [Melphalan hydrochloride] | – | – | – | – | – | – | – | – | – | Luciferase Assay % Lum (full-length luciferase counter-screen) [1, 10]: 85.47%; Luciferase Assay Z-score (full-length luciferase counter-screen) [1, 10]: -1.86; Toxicity Assay % Fluor (CTB cell viability fluorescence) (Clone V cells): 107.21%; Toxicity Assay Z-score (CTB cell viability) (Clone V cells): 1.01; Split Luciferase Assay Z-score Set 1 [2, 11]: -1.64; Split Luciferase Assay % Lum Set 1 [2, 12]: 79.68%; Split Luciferase Assay Z-score Set 2 [2, 13]: -0.10; Split Luciferase Assay %Lum Set 2 [2, 14]: 98.83%; Split Luciferase Assay %Lum Avg [2, 15]: 89.26%
O=c1cc(-c2cccc3c2Sc2ccccc2S3)oc(N2CCOCC2)c1 [KU-55933] | 33.90% | -8.46 | 89.20% | -1.51 | 69.90% | 81.14% | -2.43 | -1.53 | 75.52% | –
CNC(=O)c1ccc(N2C(=S)N(c3ccc(C#N)c(C(F)(F)F)c3)C(=O)C2(C)C)cc1F [Enzalutamide] | – | – | 90.81% | -1.28 | 94.90% | 98.83% | -0.41 | -0.10 | 96.87% | Luciferase Assay % Lum [1]: 80.08%; Luciferase Assay Z-score [1]: -2.55
